In US20140120083A1, “TREATMENT OF CANCERS USING PI3 KINASE ISOFORM MODULATORS” (INFINITY PHARMACEUTICALS, INC., priority 2012, published 2014):

Experiments:
Format in all cases: biochemical
[1] = target: PI3K β (Homo sapiens, UniProt P42338); assay: In vitro IC50, PI3K β
Source text: (§1) An exemplary system is PI 3-Kinase (human) HTRF™ Assay from Upstate.

[2] = target: PI3K δ (Homo sapiens, UniProt O00329); assay: In vitro IC50, PI3K δ; design: purchased Upstate
Source text: as §1

[3] = target: T1, PI3K γ (Homo sapiens, UniProt P48736); assay: In vitro IC50, PI3K γ
T1 construct: purchased Sigma
Source text: as §1

[4] = target: T2, PI3K α (Homo sapiens, UniProt P42336); assay: In vitro IC50, PI3K α
T2 construct: purchased Upstate
Source text: as §1

T1 sequence (P48736 whole entry): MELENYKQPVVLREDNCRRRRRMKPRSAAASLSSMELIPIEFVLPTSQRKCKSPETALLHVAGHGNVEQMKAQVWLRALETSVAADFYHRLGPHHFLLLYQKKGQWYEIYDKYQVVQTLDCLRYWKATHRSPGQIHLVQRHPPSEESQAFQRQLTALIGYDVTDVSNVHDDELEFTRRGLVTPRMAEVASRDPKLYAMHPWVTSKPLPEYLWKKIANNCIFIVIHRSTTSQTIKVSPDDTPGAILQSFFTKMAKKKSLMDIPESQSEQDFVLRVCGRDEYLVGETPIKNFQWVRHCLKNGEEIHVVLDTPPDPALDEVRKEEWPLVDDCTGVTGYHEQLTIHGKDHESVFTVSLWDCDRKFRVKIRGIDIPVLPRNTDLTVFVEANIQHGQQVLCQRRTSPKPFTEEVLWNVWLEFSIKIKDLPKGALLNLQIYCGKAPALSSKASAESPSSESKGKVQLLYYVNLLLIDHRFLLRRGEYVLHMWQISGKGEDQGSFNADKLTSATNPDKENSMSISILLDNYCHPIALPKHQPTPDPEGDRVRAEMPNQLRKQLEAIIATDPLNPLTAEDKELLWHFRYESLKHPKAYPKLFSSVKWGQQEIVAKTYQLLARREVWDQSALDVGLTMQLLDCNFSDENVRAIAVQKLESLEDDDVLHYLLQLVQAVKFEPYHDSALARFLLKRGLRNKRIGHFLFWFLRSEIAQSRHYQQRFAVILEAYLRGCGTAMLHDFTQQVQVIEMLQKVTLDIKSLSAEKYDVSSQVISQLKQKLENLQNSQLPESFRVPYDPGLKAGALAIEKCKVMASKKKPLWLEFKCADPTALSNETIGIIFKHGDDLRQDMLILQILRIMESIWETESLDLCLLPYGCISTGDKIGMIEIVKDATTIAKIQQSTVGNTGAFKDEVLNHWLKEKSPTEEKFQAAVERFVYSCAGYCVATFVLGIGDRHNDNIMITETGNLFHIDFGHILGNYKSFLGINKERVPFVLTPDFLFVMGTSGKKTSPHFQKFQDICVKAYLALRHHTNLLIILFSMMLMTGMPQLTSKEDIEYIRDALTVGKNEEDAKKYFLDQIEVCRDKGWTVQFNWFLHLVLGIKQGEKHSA
Sequence of PI3K β (P42338 whole entry): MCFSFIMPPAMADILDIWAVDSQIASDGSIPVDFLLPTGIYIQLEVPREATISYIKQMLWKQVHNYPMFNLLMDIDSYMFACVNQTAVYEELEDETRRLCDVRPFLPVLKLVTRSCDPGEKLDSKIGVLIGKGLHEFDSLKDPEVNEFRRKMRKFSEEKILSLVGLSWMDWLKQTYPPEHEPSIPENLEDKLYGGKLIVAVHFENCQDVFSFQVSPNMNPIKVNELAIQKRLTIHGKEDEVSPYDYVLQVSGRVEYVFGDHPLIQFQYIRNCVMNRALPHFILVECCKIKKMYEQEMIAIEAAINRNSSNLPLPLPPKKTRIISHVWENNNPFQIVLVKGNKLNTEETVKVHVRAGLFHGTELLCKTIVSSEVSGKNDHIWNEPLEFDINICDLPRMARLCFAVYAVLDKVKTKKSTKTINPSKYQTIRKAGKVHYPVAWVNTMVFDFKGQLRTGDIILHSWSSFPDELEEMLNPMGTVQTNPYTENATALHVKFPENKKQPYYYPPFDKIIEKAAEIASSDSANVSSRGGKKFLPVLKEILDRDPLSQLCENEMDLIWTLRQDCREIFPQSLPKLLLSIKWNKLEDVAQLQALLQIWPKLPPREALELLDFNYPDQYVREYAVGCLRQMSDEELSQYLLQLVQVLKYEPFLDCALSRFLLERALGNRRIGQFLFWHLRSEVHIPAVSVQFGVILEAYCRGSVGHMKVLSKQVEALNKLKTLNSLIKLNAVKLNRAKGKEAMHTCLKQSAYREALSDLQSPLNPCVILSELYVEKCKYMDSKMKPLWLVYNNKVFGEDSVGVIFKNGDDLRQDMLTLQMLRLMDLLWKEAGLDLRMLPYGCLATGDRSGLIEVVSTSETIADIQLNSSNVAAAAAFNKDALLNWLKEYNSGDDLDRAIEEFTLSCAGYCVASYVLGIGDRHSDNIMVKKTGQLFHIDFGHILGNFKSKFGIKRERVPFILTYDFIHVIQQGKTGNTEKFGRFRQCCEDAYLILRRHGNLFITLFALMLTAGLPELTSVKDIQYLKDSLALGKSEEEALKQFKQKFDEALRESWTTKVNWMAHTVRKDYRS
T2 sequence (P42336 whole entry): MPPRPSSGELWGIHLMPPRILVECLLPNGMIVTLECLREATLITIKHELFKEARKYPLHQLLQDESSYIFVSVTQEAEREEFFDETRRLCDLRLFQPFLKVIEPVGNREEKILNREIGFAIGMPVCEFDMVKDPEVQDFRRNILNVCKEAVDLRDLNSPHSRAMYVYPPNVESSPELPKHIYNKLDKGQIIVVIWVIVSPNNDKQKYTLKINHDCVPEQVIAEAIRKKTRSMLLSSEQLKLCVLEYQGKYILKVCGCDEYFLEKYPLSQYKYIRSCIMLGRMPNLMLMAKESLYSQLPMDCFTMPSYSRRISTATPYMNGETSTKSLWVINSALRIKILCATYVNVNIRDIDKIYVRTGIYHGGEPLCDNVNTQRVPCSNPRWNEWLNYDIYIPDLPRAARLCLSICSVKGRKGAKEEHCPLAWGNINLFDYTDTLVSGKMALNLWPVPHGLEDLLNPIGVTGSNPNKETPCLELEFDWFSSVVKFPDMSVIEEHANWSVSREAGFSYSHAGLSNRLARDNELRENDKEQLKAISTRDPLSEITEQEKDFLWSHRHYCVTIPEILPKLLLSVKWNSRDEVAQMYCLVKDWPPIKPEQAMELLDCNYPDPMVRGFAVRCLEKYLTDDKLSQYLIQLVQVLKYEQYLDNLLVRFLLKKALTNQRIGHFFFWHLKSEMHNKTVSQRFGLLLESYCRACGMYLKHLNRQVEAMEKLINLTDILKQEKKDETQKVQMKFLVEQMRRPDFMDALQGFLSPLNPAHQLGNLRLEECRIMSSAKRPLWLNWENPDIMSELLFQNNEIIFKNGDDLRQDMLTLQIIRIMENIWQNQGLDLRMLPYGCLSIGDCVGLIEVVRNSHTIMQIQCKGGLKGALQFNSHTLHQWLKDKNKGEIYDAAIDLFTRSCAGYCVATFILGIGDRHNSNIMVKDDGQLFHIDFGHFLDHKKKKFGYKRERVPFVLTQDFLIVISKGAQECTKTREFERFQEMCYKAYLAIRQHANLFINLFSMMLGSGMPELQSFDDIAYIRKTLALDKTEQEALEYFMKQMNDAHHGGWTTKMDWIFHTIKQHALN
T2 sequence (P27986 whole entry partner): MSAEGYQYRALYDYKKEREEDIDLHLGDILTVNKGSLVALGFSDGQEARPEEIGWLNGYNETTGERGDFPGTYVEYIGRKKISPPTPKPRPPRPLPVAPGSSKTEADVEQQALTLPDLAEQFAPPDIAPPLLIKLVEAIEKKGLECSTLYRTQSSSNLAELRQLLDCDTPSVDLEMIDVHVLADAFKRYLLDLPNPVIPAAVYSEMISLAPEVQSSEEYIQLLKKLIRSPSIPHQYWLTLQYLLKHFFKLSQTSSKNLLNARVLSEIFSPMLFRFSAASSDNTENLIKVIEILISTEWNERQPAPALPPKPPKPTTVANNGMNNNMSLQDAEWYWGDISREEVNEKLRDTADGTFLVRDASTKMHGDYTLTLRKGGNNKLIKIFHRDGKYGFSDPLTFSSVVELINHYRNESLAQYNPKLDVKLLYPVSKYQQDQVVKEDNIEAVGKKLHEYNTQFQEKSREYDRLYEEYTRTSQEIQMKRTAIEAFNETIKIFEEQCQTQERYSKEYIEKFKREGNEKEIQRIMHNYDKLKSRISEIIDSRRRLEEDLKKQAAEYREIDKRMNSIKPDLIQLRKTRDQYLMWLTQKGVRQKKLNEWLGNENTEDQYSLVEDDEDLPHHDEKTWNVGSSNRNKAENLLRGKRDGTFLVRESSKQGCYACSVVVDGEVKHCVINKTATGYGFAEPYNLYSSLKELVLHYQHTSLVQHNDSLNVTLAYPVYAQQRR
Sequence of PI3K δ (O00329 whole entry): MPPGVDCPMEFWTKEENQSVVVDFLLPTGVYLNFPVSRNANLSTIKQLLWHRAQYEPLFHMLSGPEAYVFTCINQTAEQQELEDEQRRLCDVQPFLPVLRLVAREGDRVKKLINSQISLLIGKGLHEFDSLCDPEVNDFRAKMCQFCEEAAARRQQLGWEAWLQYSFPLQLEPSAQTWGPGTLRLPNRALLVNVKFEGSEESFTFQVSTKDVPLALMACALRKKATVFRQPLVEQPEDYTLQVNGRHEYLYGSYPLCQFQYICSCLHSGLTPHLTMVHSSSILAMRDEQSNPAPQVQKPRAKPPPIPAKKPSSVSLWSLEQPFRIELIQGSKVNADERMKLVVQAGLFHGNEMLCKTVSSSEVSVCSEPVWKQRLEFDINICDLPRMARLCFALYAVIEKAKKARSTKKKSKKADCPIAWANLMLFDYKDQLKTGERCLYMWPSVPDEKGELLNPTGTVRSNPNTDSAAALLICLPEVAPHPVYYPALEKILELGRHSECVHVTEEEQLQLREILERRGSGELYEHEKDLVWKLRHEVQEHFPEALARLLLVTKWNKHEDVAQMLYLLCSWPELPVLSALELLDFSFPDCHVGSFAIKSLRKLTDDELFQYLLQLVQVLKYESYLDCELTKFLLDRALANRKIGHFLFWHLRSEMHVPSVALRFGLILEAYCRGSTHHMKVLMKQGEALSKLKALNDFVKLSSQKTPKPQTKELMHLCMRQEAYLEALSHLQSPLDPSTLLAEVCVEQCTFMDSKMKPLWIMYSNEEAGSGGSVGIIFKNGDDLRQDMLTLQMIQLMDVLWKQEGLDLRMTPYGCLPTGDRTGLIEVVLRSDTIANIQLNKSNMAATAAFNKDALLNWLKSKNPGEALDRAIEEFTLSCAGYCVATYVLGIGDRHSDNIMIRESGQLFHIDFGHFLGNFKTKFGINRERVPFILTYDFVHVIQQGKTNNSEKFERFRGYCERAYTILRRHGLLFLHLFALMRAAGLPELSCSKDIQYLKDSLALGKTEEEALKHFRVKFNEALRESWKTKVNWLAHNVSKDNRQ
Sequence of PI3K δ (P27986 whole entry partner): as the sequence (P27986 whole entry partner) above

| SMILES | IC50 [1] [µM] | IC50 [2] [µM] | IC50 [3] [µM] | IC50 [4] [µM] |
| --- | --- | --- | --- | --- |
| Cc1cccc2cc(Cn3nc(-c4cc(O)cc(F)c4)c4c(N)ncnc43)n(-c3ccccc3F)c(=O)c12 [Compound 3] | < 10 | < 0.1 | < 0.1 | < 10 |
| Cc1cccc2cc(Cn3nc(C#CCO)c4c(N)ncnc43)n(-c3ccccc3F)c(=O)c12 [Compound 8] | > 10 | < 0.1 | < 1 | > 10 |
| Cc1cccc2cc(Cn3nc(-c4ccc(F)c(O)c4)c4c(N)ncnc43)n(-c3ccccc3F)c(=O)c12 [Compound 9] | > 10 | < 0.1 | < 1 | > 10 |
| Cc1cccc2cc(Cn3nc(-c4cccc(O)c4)c4c(N)ncnc43)n(-c3ccccc3F)c(=O)c12 [Compound 10] | > 10 | < 0.1 | < 1 | > 10 |
| Cc1ccccc1-n1c(Cn2nc(C#CCO)c3c(N)ncnc32)cc2cccc(C)c2c1=O [Compound 11] | > 10 | < 0.1 | < 1 | > 10 |
| Cc1ccccc1-n1c(Cn2nc(-c3ccc(F)c(O)c3)c3c(N)ncnc32)cc2cccc(C)c2c1=O [Compound 12] | < 10 | < 0.1 | < 0.1 | > 10 |
| Cc1ccccc1-n1c(Cn2nc(-c3cccc(O)c3)c3c(N)ncnc32)cc2cccc(C)c2c1=O [Compound 13] | < 10 | – | < 0.1 | > 10 |
| Cc1ccccc1-n1c(Cn2nc(C#CC3CC3)c3c(N)ncnc32)cc2cccc(C)c2c1=O [Compound 14] | > 10 | < 1 | < 1 | > 10 |
| COc1cc(-c2nn(Cc3cc4cccc(C)c4c(=O)n3-c3ccccc3C)c3ncnc(N)c23)ccc1Cl [Compound 21] | > 10 | < 1 | < 0.1 | > 10 |
| COc1cc(-c2nn(Cc3cc4cccc(C)c4c(=O)n3-c3ccccc3F)c3ncnc(N)c23)ccc1Cl [Compound 22] | > 10 | < 10 | < 1 | > 10 |
| Cc1ccccc1-n1c(Cn2nc(-c3ccc(Cl)c(O)c3)c3c(N)ncnc32)cc2cccc(C)c2c1=O [Compound 23] | < 10 | < 0.1 | < 0.1 | > 10 |
| Cc1ccccc1-n1c(Cn2nc(-c3ccc(O)c(Cl)c3)c3c(N)ncnc32)cc2cccc(C)c2c1=O [Compound 25] | < 10 | < 0.1 | < 0.1 | > 10 |
| Cc1cccc2cc(Cn3nc(-c4ccc(O)c(Cl)c4)c4c(N)ncnc43)n(-c3ccccc3F)c(=O)c12 [Compound 26] | > 10 | < 1 | < 0.1 | > 10 |
| Cc1ccccc1-n1c(Cn2nc(-c3ccc(F)cc3)c3c(N)ncnc32)cc2cccc(C)c2c1=O [Compound 27] | > 10 | < 10 | < 1 | > 10 |
| Cc1cccc2cc(Cn3nc(C#C[C@@H](C)O)c4c(N)ncnc43)n(-c3ccccc3F)c(=O)c12 [Compound 28] | > 10 | < 0.1 | < 1 | > 10 |
| Cc1cccc2cc(Cn3nc(-c4ccc(O)c(F)c4)c4c(N)ncnc43)n(-c3ccccc3F)c(=O)c12 [Compound 29] | > 10 | < 1 | < 0.1 | > 10 |
| Cc1cccc2cc(Cn3nc(Cl)c4c(N)ncnc43)n(-c3ccccc3F)c(=O)c12 [Compound 34] | > 10 | < 1 | < 10 | > 10 |
| Cc1cccc2cc(Cn3nc(Br)c4c(N)ncnc43)n(-c3ccccc3F)c(=O)c12 [Compound 35] | > 10 | < 1 | < 10 | > 10 |
| Cc1ccccc1-n1c(Cn2nc(-c3ccc(O)cc3)c3c(N)ncnc32)cc2cccc(C)c2c1=O [Compound 36] | > 10 | < 1 | < 0.1 | > 10 |
| Cc1ccccc1-n1c(Cn2nc(C#C[C@@H](C)O)c3c(N)ncnc32)cc2cccc(C)c2c1=O [Compound 37] | > 10 | < 0.1 | < 10 | > 10 |
| Cc1ccccc1-n1c(Cn2nc(-c3cccc(Cl)c3)c3c(N)ncnc32)cc2cccc(C)c2c1=O [Compound 39] | > 10 | < 10 | < 1 | > 10 |
| Cc1cccc2cc(Cn3nc(-c4cccc(F)c4)c4c(N)ncnc43)n(-c3ccccc3F)c(=O)c12 [Compound 40] | > 10 | < 10 | < 10 | > 10 |
| Cc1ccccc1-n1c(Cn2nc(-c3cccc(F)c3)c3c(N)ncnc32)cc2cccc(C)c2c1=O [Compound 41] | > 10 | < 10 | < 1 | > 10 |
| Cc1ccccc1-n1c(Cn2nc(I)c3c(N)ncnc32)cc2cccc(F)c2c1=O [Compound 42] | > 10 | < 1 | < 10 | > 10 |

| SMILES | IC50 [1] [µM] | IC50 [2] [µM] | IC50 [3] [µM] | IC50 [4] [µM] |
| --- | --- | --- | --- | --- |
| Cc1ccccc1-n1c(Cn2nc(C#C[C@@H](C)O)c3c(N)ncnc32)cc2cccc(F)c2c1=O [Compound 43] | > 10 | < 1 | > 10 | > 10 |
| COc1ccc(-c2nn(Cc3cc4cccc(C)c4c(=O)n3-c3ccccc3C)c3ncnc(N)c23)cc1OC [Compound 44] | > 10 | < 1 | < 0.1 | > 10 |
| Cc1cccc2cc(Cn3nc(-c4ccc(O)cc4)c4c(N)ncnc43)n(-c3ccccc3F)c(=O)c12 [Compound 46] | > 10 | < 10 | < 1 | > 10 |
| Cc1ccccc1-n1c(Cn2nc(-c3ccc(Cl)c(O)c3)c3c(N)ncnc32)cc2ccccc2c1=O [Compound 52] | > 10 | < 0.1 | < 0.1 | > 10 |
| CC(=O)Nc1nc2ccc(-c3nn(Cc4cc5cccc(C)c5c(=O)n4-c4ccccc4C)c4ncnc(N)c34)cc2s1 [Compound 53] | < 10 | – | < 0.1 | < 1 |
| Cc1ccccc1-n1c(Cn2nc(-c3ccc(F)c(O)c3)c3c(N)ncnc32)cc2ccccc2c1=O [Compound 54] | > 10 | < 0.1 | < 0.1 | > 10 |
| Cc1ccccc1-n1c(Cn2nc(-c3cc(O)cc(F)c3)c3c(N)ncnc32)cc2cccc(F)c2c1=O [Compound 55] | < 10 | < 0.1 | < 1 | > 10 |
| Cc1ccccc1-n1c(Cn2nc(-c3ccc(F)c(O)c3)c3c(N)ncnc32)cc2cccc(F)c2c1=O [Compound 56] | > 10 | < 0.1 | < 0.1 | > 10 |
| Cc1cccc2cc(Cn3nc(I)c4c(N)ncnc43)n(C3CCCC3)c(=O)c12 [Compound 57] | > 10 | < 1 | < 10 | > 10 |
| Cc1cccc2cc(Cn3nc(-c4cccc(O)c4)c4c(N)ncnc43)n(C3CCCC3)c(=O)c12 [Compound 58] | < 10 | < 0.1 | < 1 | > 10 |
| Cc1cccc2cc(Cn3nc(-c4cccc(O)c4)c4c(N)ncnc43)n(C3CCCCC3)c(=O)c12 [Compound 111] | < 10 | < 0.1 | – | > 10 |
| Cc1cccc2cc(Cn3nc(C#C[C@@H](C)O)c4c(N)ncnc43)n(C3CCCCC3)c(=O)c12 [Compound 112] | > 10 | < 0.1 | – | > 10 |
| Cc1cccc2cc(Cn3nc(-c4cccc(O)c4)c4c(N)ncnc43)n(C3CCC3)c(=O)c12 [Compound 114] | < 10 | < 0.1 | – | > 10 |
| Cc1cccc2cc(Cn3nc(-c4cc(O)cc(F)c4)c4c(N)ncnc43)n(C3CCC3)c(=O)c12 [Compound 115] | < 10 | < 0.1 | – | < 10 |
| CC(=O)Nc1nc2ccc(-c3nn(Cc4cc5cccc(C)c5c(=O)n4C)c4ncnc(N)c34)cc2s1 [Compound 153] | < 1 | < 0.1 | – | < 0.1 |
| CC(=O)Nc1nc2ccc(-c3nn(Cc4cc5cccc(C)c5c(=O)n4C(C)C)c4ncnc(N)c34)cc2s1 [Compound 154] | < 10 | < 0.1 | – | < 0.1 |
| CC(=O)Nc1nc2ccc(-c3nn(Cc4cc5cccc(C)c5c(=O)n4C4CC4)c4ncnc(N)c34)cc2s1 [Compound 155] | < 0.1 | < 0.1 | – | < 0.1 |
| CC(=O)Nc1nc2ccc(-c3nn(Cc4cc5cccc(Cl)c5c(=O)n4C4CC4)c4ncnc(N)c34)cc2s1 [Compound 156] | < 0.1 | < 0.1 | – | < 0.1 |
| CC(=O)Nc1nc2ccc(-c3nn(Cc4cc5cccc(Cl)c5c(=O)n4C(C)C)c4ncnc(N)c34)cc2s1 [Compound 157] | < 0.1 | < 0.1 | – | < 0.1 |
| CC(=O)Nc1nc2ccc(-c3nn(Cc4cc5cccc(F)c5c(=O)n4C(C)C)c4ncnc(N)c34)cc2s1 [Compound 158] | < 10 | < 0.1 | – | < 0.1 |
| CC(=O)Nc1nc2ccc(-c3nn(Cc4cc5cccc(C)c5c(=O)n4C4CCC4)c4ncnc(N)c34)cc2s1 [Compound 159] | < 1 | < 0.1 | – | < 0.1 |
| Cc1ccccc1-n1c(Cn2nc(-c3cnn(CCO)c3)c3c(N)ncnc32)cc2cccc(C)c2c1=O [Compound 163] | > 10 | – | < 1 | > 10 |
| Cc1ccccc1-n1c(CN(C)c2ncnc3[nH]cnc23)cc2cccc(C)c2c1=O [Compound 184] | > 10 | – | < 10 | > 10 |
| CC(=O)Nc1nc2ccc(-c3nn(Cc4cc5cccc(C)c5c(=O)n4-c4ccccc4)c4ncnc(N)c34)cc2[nH]1 [Compound 304] | > 10 | – | < 0.1 | > 10 |
